In patent US20260085253A1, “LILY OF THE VALLEY ODORANT” (Firmenich SA, priority 2022, published 2026):

Assays:
Ixodes ricinus = assay: Warm Plate assay: repellent efficacy on ticks; format: in vivo; conditions: for Percentage of repellence of ticks Ixodes ricinus on the warm plate: n = 12, last stage nymphs
Experimental: b) Warm Plate Assay: Small-Scale Test Used to Screen the Repellent Efficacy on Ticks at Different Concentrations.
Repellent efficacy of the different compounds was assessed against the sheep tick, Ixodes ricinus L that can transmit both bacterial and viral pathogens. I. ricinus is one of the recommended model organisms mentioned by the Guidance on the European […] [Vol IL, Efficacy—Assessment & Evaluation (Parts B+C), v6.0, Août 2023]. Observations of repellent efficacy were made on last stage nymphs.
The repellent efficacy was assessed using the protocol of the in-vitro Warm Plate Assay as defined in Kröber T, Bourquin M, Guerin P M. 2013. Pestic. Biochem. Phys. 107(2):160-168.
Ticks had the choice of crossing a zone with 3-(4-isopropyl-2-methylphenyl)propanal (96%) applied or to stay on their refuge without any compound applied. To motivate ticks' movement, the warm plate was heated at 33° C. (to mimic vertebrate skin temperature) and hold in a favourable environment (23° C., 85% RH).
The stimulus tested was stim A (3-(4-isopropyl-2-methylphenyl)propanal at 96%) diluted in ethanol. Twelve different ticks were tested for each of the four concentrations.

Aedes aegypti = assay: Warm Body assay: repellent efficacy on mosquitoes; format: in vivo; conditions: 100 μL on warm body
Experimental: a) Warm Body Assay: Small-Scale Test Used to Screen the Repellent Efficacy on Mosquitoes at Different Concentrations. […] Anopheles gambiae is also a model organism as it is anthropophilic and transmits malaria. The controlling effect according to the present invention was assessed using an adapted Warm Body assay as defined in Kröber T, Kessler S, FreiJ, Bourquin M, Guerin P M. 2010. J Am Mosq Control Assoc. 26:381-386. In this in-vitro assay the number of mosquito landing on a warm body, simulating an attractive host treated with the tested stimuli, was measured in order to assess the repellence effect. The published protocol has been adapted as the switch from Anopheles gambiae to Aedes aegypti led to a decrease of mosquitoes placed in the tested cage due to the size difference (i.e. 30 mosquitoes instead of 50) and to an increase of lighting since Ae. aegypti is a diurnal mosquitoes (i.e. 150 lux instead of 4 lux). On the sandblasted glass Petri dish covering the warm body (28.3 cm^2), 100 μL of the compounds diluted at 5-8 concentrations in ethanol was applied. The number of mosquito landing on the warm body was counted for each stimulus and pure ethanol (solvent) as control. The stimuli tested were stim A (3-(4-isopropyl-2-methylphenyl)propanal at 96%) and stim B (a composition of matter comprising 3-(4-isopropyl-2-methylphenyl)propanal, 3-(2-isopropyl-4-methylphenyl)propanal and 3-(2-methyl-5-propan-2-ylphenyl)propanal at 88%, 5% and 2%, respectively) diluted in ethanol. Five to eight concentrations were assessed on each stimulus, missing data points mentioned as n.d. The mean number of mosquito landings with the solvent only (0 mg/mL) is equal to 64.5±10.1 landings in two minutes.

Cc1cc(C(C)C)ccc1CCC=O [Stim A, 3-(4-isopropyl-2-methylphenyl)propanal]
Percentage of repellence of ticks Ixodes ricinus on the warm plate (Ixodes ricinus; 0.4 mg/mL in ethanol): 25.0%
Percentage of repellence of ticks Ixodes ricinus on the warm plate (Ixodes ricinus; 2 mg/mL in ethanol): 100.0%
Percentage of repellence of ticks Ixodes ricinus on the warm plate (Ixodes ricinus; 10 mg/mL in ethanol): 100.0%
repellence of ticks Ixodes ricinus on the warm plate (in words) (Ixodes ricinus; as soon as 0.02% applied on the warm plate): All ticks were repelled
Percentage of repellence of mosquitoes Aedes aegypti landing on the warm body (Aedes aegypti; 0.0032 mg/mL in ethanol): 20%
Percentage of repellence of mosquitoes Aedes aegypti landing on the warm body (Aedes aegypti; 0.016 mg/mL in ethanol): 41%
Percentage of repellence of mosquitoes Aedes aegypti landing on the warm body (Aedes aegypti; 0.08 mg/mL in ethanol): 40%
Percentage of repellence of mosquitoes Aedes aegypti landing on the warm body (Aedes aegypti; 0.4 mg/mL in ethanol): 63%
Percentage of repellence of mosquitoes Aedes aegypti landing on the warm body (Aedes aegypti; 2 mg/mL in ethanol): 71%
Percentage of repellence of mosquitoes Aedes aegypti landing on the warm body (Aedes aegypti; 10 mg/mL in ethanol): 90%
